Several values for one entry are separate records, joined by “and”; a condition that tells them apart may be missing. Identical values can stand only once.

The target of one series is recombinant SmCB1 (Schistosoma mansoni, UniProt Q8MNY2, T185A/T300A). Kind of series: SmCB1 kinetic inhibition assay with fluorogenic substrate Cbz-Phe-Arg-AMC. The settings on record: for Ki: SmCB1 inhibition Ki; for Ki / SmCB1 inhibition k2nd (second-order rate constant): substrate Cbz-Phe-Arg-AMC; for SmCB1 inhibition k2nd (second-order rate constant): slow-binding azadipeptide nitriles. In kind it is biochemical. As to the method:
Inhibition measurements were performed in triplicates in 96-well microplates (100 μL assay volume) at 37 °C. SmCB1 (20–40 pM) was added to a mixture of the fluorogenic substrate Cbz-Phe-Arg-AMC (20 μM) and an inhibitor (0–100 μM) in 0.1 M sodium acetate, pH 5.5, containing 2.5 mM dithiothreitol and 0.1% PEG 6000. The substrate hydrolysis was monitored in an Infinite M1000 microplate reader (Tecan, Männedorf, Switzerland) at excitation and emission wavelengths of 360 and 465 nm, respectively, for up to 15 and 60 min for fast- and slow-binding inhibitors, respectively. […] For slow-binding inhibitors, an observed first-order rate constant kobs was calculated at each inhibitor concentration by fitting the progress curve to the equation P = vst + (vi – vs)(1 – […])/kobs + d, where P is the product formation, vs is the steady-state velocity, t is the reaction time, vi is the initial velocity, and d is the offset. The inhibition constant Ki′ was determined by nonlinear regression using the equation vs/v0 = 1/(1 + [I]/Ki′). The true inhibition constants Ki were then calculated using the equation Ki = Ki′/(1 + [S]/Km), where [S] is the substrate concentration and Km is the Michaelis constant. The apparent second-order rate constant k2nd′ was determined by fitting to the linear equation kobs = k2nd′[I] + koff, where koff is the first-order rate constants for the dissociation of the enzyme–inhibitor complex and the true constant k2nd was calculated by the correction k2nd = k2nd′(1 + [S]/Km). […] In none of the assay systems did the final concentration of DMSO exceed 1.5%.

The subject of series [1] is S. mansoni newly transformed schistosomula (NTS). The series is described as follows: Schistosome phenotypic assay. In kind it is cell-based, Schistosoma mansoni. The settings on record: for Severity score Day 1 / Severity score Day 2 / Severity score Day 3 / Severity score Day 4: 10 μM inhibitor, scale 0 (no effect) to 4 (severe); for Severity score Day 1: 24 h; for Severity score Day 2: 48 h. As to the method: Newly transformed schistosomula (NTS) of S. mansoni were prepared by mechanically transforming infective larvae (cercariae) as described previously.[70],[71] NTS (200–300 parasites) were incubated in 200 μL of Basch Medium 169 containing 5% FBS, 100 U mL^–1 penicillin, and 100 μg mL^–1 streptomycin at 5% CO2 and 37 °C.[70],[72],[73] Inhibitors were added at the final concentration of 10 μM,[20],[69] and changes in phenotypes were observed every 24 h for up to 4 days. A constrained nomenclature of “descriptors” is used to record the multiple and dynamic changes in movement, shape, and translucence of which the schistosome parasite is capable (Table S3).[70] These descriptors are then converted into an ordinal “severity score” system from 0 (no effect) to 4 (maximum effect), which allows for the relative comparison of compound effects, as described.[74],[75] Images of NTS were captured using a Zeiss Axiovert 40 C inverted microscope (10× objective) and a Zeiss AxioCam MRc digital camera controlled by AxioVision 40 (v. 4.8.1.0) software.

Series [2] can be described thus: Cytotoxicity, XTT test, HepG2. In kind it is cell-based. The settings on record: human, % viability vs. untreated cells, read-out: Cell line viability after 72 h; for viability at 72 h, 1 µM: HepG2, 1 µM; for viability at 72 h, 10 µM: HepG2, 10 µM. How it is done: (§1) T able S4. […]
(§2) Cell line viability after 72 h (%)a
(§3) Inhibitor 1 µM 10 µM 1 µM 10 µM
(§4) aCytotoxicity of the inhibitors towards human cell lines are expressed as % viability vs. untreated cells. Cells were treated with
(§5) the indicated concentration of the compounds for 72 h and assayed by means of the XTT test (as described previously 12).
(§6) Standard deviation values were within 10% of the mean of tetraplicates. […]
(Tetrazolium assays rely on reduction of a dye to a coloured formazan, in cell work by metabolically active cells.)

Series [3] is described as follows: Cytotoxicity, XTT test, HUVEC. In kind it is cell-based. The settings on record: human, % viability vs. untreated cells, read-out: Cell line viability after 72 h. As to the method:
as §1, §2, §3, §4, §5, §6

Where [4] appears, read: kinetic activity assay, pH 5.5, 37 °C.

Chain of recombinant SmCB1 (Q8MNY2 87-340 T185A/T300A): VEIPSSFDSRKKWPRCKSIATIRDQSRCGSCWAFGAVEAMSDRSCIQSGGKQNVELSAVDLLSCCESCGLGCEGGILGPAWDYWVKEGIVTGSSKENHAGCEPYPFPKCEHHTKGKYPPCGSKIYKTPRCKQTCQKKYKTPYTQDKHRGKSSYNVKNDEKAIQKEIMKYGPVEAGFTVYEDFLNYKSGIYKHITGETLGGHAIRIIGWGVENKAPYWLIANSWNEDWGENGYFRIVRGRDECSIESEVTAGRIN

Consider `CCCCCN(C#N)N(C)C(=O)[C@H](Cc1ccccc1)NC(=O)OCc1ccccc1` [Compound 9a], for which, at recombinant SmCB1 (setting [4]), the Ki turned out to be 6.2 ± 0.5 nM. For the same compound, the “SmCB1 inhibition k2nd (second-order rate constant)” value (from here on “SmCB1 inhibition k2nd”) on recombinant SmCB1 was 2.1 10^3 M^-1 s^-1 and 2.1 ± 0.3 10^3 M^-1 s^-1. Further, in series [1] (10 µM inhibitor), the “Descriptors Day 1 (phenotypic changes)” value is recorded as “Deg” and the “Descriptors Day 2 (phenotypic changes)” value is reported as “Deg”. Further, in series [1], the “Severity score Day 1” value is 4 and 4/4; the “Severity score Day 2” value is 4 and 4/4; the “Severity score Day 3” value was found to be 4; the “Severity score Day 4” value is on record as 4. In series [2], the viability at 72 h, 1 µM was determined as 85% and the viability at 72 h, 10 µM came out at 78%. For the same compound, in series [3], the viability at 72 h, 1 µM stood at 104% and the viability at 72 h, 10 µM was 81%.
Turning to `CN(C(=O)[C@H](Cc1ccccc1)NC(=O)OCc1ccccc1)N(C#N)CCc1ccccc1` [Compound 8a], the inhibitory constant (Ki) at recombinant SmCB1 (setting [4]) turned out to be 4.8 ± 0.2 nM. Besides, the “SmCB1 inhibition k2nd” value at recombinant SmCB1 was 5.2 10^3 M^-1 s^-1 and 5.2 ± 0.4 10^3 M^-1 s^-1. Further, the “Descriptors Day 1 (phenotypic changes)” value in series [1] (10 µM inhibitor) is “Deg”. Besides, in series [1], the “Severity score Day 1” value was 4 and 4/4; the “Severity score Day 2” value was 4 and 4/4; the “Severity score Day 3” value came out at 4; the “Severity score Day 4” value was 4. In series [2], the viability at 72 h, 1 µM amounted to 102% and the viability at 72 h, 10 µM turned out to be 83%. Further, in series [3], the viability at 72 h, 1 µM was determined as 101% and the viability at 72 h, 10 µM is 44%.
On to `CC(C)C[C@H](NC(=O)c1ccc(-c2noc(-c3cccs3)n2)cc1)C(=O)N(C)N(C)C#N` [Compound 5a], for which the Ki on recombinant SmCB1 (setting [4]) came out at 4.8 ± 0.3 nM. The “SmCB1 inhibition k2nd” value at recombinant SmCB1 was 29.0 10^3 M^-1 s^-1 and 29.0 ±1.4 10^3 M^-1 s^-1. In series [1] (10 µM inhibitor), the “Descriptors Day 1 (phenotypic changes)” value is recorded as “Deg” and the “Descriptors Day 2 (phenotypic changes)” value was “Deg”. Also, in series [1], the “Severity score Day 1” value is listed as 2, the “Severity score Day 2” value is given as 4, the “Severity score Day 3” value is given as 4 and the “Severity score Day 4” value was 4. Also, in series [2], the viability at 72 h, 1 µM was 91% and the viability at 72 h, 10 µM was 101%. In series [3], the viability at 72 h, 1 µM stood at 91% and the viability at 72 h, 10 µM was 66%.
Turning to `CN(C#N)N(C)C(=O)[C@H](CC1CCCCC1)NC(=O)OCc1ccccc1` [Compound 11a], the Ki at recombinant SmCB1 (setting [4]) worked out at 4.6 ± 0.5 nM. In addition, at recombinant SmCB1, the “SmCB1 inhibition k2nd” value is 32.7 ± 2.8 10^3 M^-1 s^-1. Also, in series [1] (10 µM inhibitor), the “Descriptors Day 1 (phenotypic changes)” value is recorded as “R, Unc”; the “Descriptors Day 2 (phenotypic changes)” value is recorded as “Deg”; the “Descriptors Day 3 (phenotypic changes)” value is recorded as “Deg”. Moreover, in series [1], the “Severity score Day 1” value is 2, the “Severity score Day 2” value is 4, the “Severity score Day 3” value amounted to 4 and the “Severity score Day 4” value stood at 4. In addition, in series [2], the viability at 72 h, 1 µM amounted to 89% and the viability at 72 h, 10 µM worked out at 109%. Moreover, in series [3], the viability at 72 h, 1 µM came to 92% and the viability at 72 h, 10 µM stood at 85%.
On to `CC(C)CC(NC(=O)NCc1ccccc1)C(=O)N(C)N(C)C#N` (stereo not shown) [Compound 3a], for which, on recombinant SmCB1 (setting [4]), the inhibition constant Ki turned out to be 6.1 ± 0.7 nM. Moreover, the “SmCB1 inhibition k2nd” value on recombinant SmCB1 was 20.4 10^3 M^-1 s^-1 and 20.4 ± 1.9 10^3 M^-1 s^-1. In series [1] (10 µM inhibitor), the “Descriptors Day 1 (phenotypic changes)” value is recorded as “R, Unc, Dark” and the “Descriptors Day 2 (phenotypic changes)” value is “Deg”. In addition, in series [1], the “Severity score Day 1” value turned out to be 3, the “Severity score Day 2” value worked out at 4, the “Severity score Day 3” value is 4 and the “Severity score Day 4” value is on record as 4. In series [2], the viability at 72 h, 1 µM was found to be 82% and the viability at 72 h, 10 µM came to 83%. In series [3], the viability at 72 h, 1 µM is 106% and the viability at 72 h, 10 µM came to 90%.
`N#CCNC(=O)[C@H](Cc1ccccc1)NC(=O)OCc1ccccc1` [Compound 2c]: on recombinant SmCB1 (Figure 2), the “binding kinetics (shape of progress curves)” value is “fast-binding”. Further, the Ki on recombinant SmCB1 (Table S2, carbadipeptide nitriles) was determined as 2920 ± 320 nM. Moreover, the inhibition constant (Ki) on recombinant SmCB1 (setting [4]) was 2920 ± 320 nM. In series [1], the “Severity score Day 1” value was determined as 0, the “Severity score Day 2” value is reported as 0, the “Severity score Day 3” value is given as 0 and the “Severity score Day 4” value was found to be 0.

By Ki is commonly meant the dissociation constant of the complex between target and ligand, obtained from inhibition or displacement. As a reminder, the viability is a read-out of living cells in per cent, often relative to untreated cells.

The record behind these values is article PMC7802074, “Azanitrile Inhibitors of the SmCB1 Protease Target Are Lethal to Schistosoma mansoni: Structural and Mechanistic Insights into Chemotype Reactivity” (ACS Infectious Diseases, 2020).
